Where a name gives a salt, the structure may show the parent alone.
Tests used:
[1] = hydrocortisone = 1; cited from earlier work
[2] = system: transplanted corneal grafts; experiment: Corneal allograft rejection after penetrating keratoplasty, weekly SC injection; assay type: in vivo, Lewis rats; settings: for survival rate of cornea grafts: weekly SC 50 μL at 1 mg DSP/mL
Protocol: All procedures performed with rats were approved by the Johns Hopkins University Animal Care and Use Committee. The Brown-Norway donor rats were sacrificed and the central corneal button of both eyes were removed with a 4.0-mm trephine and kept in physiological solution ready for use. The surgery was performed by a corneal surgeon (QP) under an operating microscope. The cornea recipient Lewis rats were anesthetized with an intramuscular injection of a mixture of Ketamine (80 mg/kg) and Xylazine (8 mg/kg). Repeated instillations of 0.5% tropicamide eye drops were used on Lewis rats for total pupil dilation before surgery. A paracentesis was performed before trephinization, and the anterior chamber was filled with hyaluronic acid. The corneal buttons were removed from the receptor Lewis rats with a 3.5-mm trephine. The donor corneal button was sutured to receptor cornea with 8 suture points.
All groups of animals were undertaken same treatment once every week until the failure of grafts or the end point of study (9 week).
The clinical observations with a slit lamp microscope were performed by two ophthalmologists (QP and LT) on post-operational (PO) 2 week for group 1 and group 2, PO 4 week for group 3 and PO 9 week for group 4. Three parameters were evaluated for the examination of the corneal grafts (cornea transparency, edema and neovascularization). The scoring for the parameters is presented below.
Intraocular pressure was monitored at PO 2 day, 1 week, 2 week, 4 week, 6 week, 8 week and 9 week after the surgery. IOP recorded for each eye is the average of three successful measurements. Animals at the end time points were sacrificed by CO2 and the eyes with PK surgery were enucleated. Eye tissues were fixed with 10% formalin for 24 h before embedding in paraffin. Sections (5 μm) were cut from through the direction of optical nerve and cornea, and stained with H&E.

[3] = In vivo ocular DSP levels after SC injection ([3H]-labeled DSP); design: species or system Sprague Dawley rat
Protocol: Nanoparticles were suspended in saline at 20 μCi/mL. […] 40 μL (˜0.8 μCi per eye) of same formulation was injected to both eyes of the same animal (Sprague Dawley rat). At the indicated time intervals, 2 h, 1 day, 3 day, 5 day and 7 day after injection, the rats were anesthetized by intramuscular injection of ketamine/xylazine solution. The animal was sacrificed after collecting two drops of blood from the tail vein.
The eye ball with conjunctiva tissue was carefully removed from rats and rinsed with PBS, dried by Kimwipe tissue. The anterior chamber humor, cornea, vitreous, retina and the remaining eye ball tissue were carefully dissected and collected. Both cornea and retina tissues were rinsed with PBS and dried with Kimwipe tissue. All the samples were weighed, dissolved with 2 mL of Solvable by incubation at 50° C. overnight. Blood samples were bleached with 0.2 ml H2O2 and 20 μL, 0.5M EDTA. 10 ml […] scintillation medium was added before counting the radioactivity in a scintillation counter. The results were expressed as a percentage of the injected dose and are the mean±sd of four eyes (2 animals) per data point. […] Total percentage of injected dose at the periocular tissue and the radioactivity per mg (or mL) of tissue were calculated.
Fifty μL (˜0.8 per eye) of the same formulation was administered to both eyes of the same animal (Sprague Dawley rat) through SC injection. At POD14, the rats under anesthesia were sacrificed after collecting two drops of blood from the tail vein. The aqueous, vitreous, and the remaining ocular tissues containing injection sites were carefully dissected and collected. All the samples were weighed and then dissolved with 2 mL of Solvable (Perkin Elmer, Waltham, Mass.) by incubation at 50° C. overnight. Blood samples were bleached with 0.2 mL H2O2 and 20 μL 0.5M EDTA. Ten milliliters of Ultima gold scintillation medium (Perkin Elmer, Waltham, Mass.) was added before counting the radioactivity in a scintillation counter (Perkin Elmer, Waltham, Mass.). The results were expressed as a percentage of the injected dose and are the mean±standard deviation (SD) of four eyes per data point. […] The total percentage of the injected dose at the injection sites and the radioactivity per mg of tissue or mL of blood were calculated.

SMILES: C[C@]12C=CC(=O)C=C1CC[C@@H]1[C@@H]2[C@@H](O)C[C@@]2(C)[C@H]1CC[C@]2(O)C(=O)CO [Prednisolone]
- Relative Potency of Glucocorticoid [1]: 4

SMILES: C[C@@H]1C[C@H]2[C@@H]3CCC4=CC(=O)C=C[C@]4(C)[C@@]3(F)[C@@H](O)C[C@]2(C)[C@@]1(O)C(=O)COP(=O)(O)O [DSP, Dexamethasone 21-phosphate sodium salt]
- survival rate of cornea grafts ([2]; PO 2 week): 100%
- survival rate of cornea grafts ([2]; PO 3 week): 80%
- histological examination of cornea tissues at end point ([2]; PO 4 week for DSP, PO 9 week for DSP-NP): swollen and thicker than the normal healthy cornea
- time at which all grafts were rejected ([2]; PO, weekly SC injection): 4 week
- cornea transparency (clinical observation) ([2]; weekly SC injection): as opaque as saline control and NP control groups
- graft neovascularization (clinical observation) ([2]; weekly SC injection, versus control groups): less neovascularization
- graft edema (clinical observation) ([2]; weekly SC injection, versus saline and NP control): significant less edema
- DSP level in blood ([3]; PO 2 h, SC injection): ≤ 350 ng DSP per ml
- total dose retained at the conjunctiva tissue ([3]; PO 2 h, single SC injection, ~0.08 mg DSP): Approximately 0.4%
- DSP in anterior chamber and vitreous ([3]; PO 7 day after SC administration): not detectable
- DSP at the conjunctiva tissue ([3]; PO day 1, single SC injection): almost no DSP can be detected
- DSP levels at retina and cornea ([3]; SC injection): very low
- time to clearance after SC injection ([3]; rat, in vivo, sc): up to 2 hours

SMILES: C[C@]12C=CC(=O)C=C1CC[C@H]1[C@@H]3C[C@@H](O)[C@](O)(C(=O)CO)[C@@]3(C)C[C@H](O)[C@@]12F [Triamcinolone]
- Relative Potency of Glucocorticoid [1]: 5

SMILES: C[C@]12CCC(=O)C=C1CC[C@@H]1[C@@H]2[C@@H](O)C[C@@]2(C)[C@H]1CC[C@]2(O)C(=O)CO [Hydrocortisone]
- Relative Potency of Glucocorticoid [1]: 1

SMILES: CC(=O)OCC(=O)[C@@]1(O)[C@H](C)C[C@H]2[C@@H]3C=C(C)C4=Cc5c(cnn5-c5ccccc5)C[C@]4(C)[C@H]3[C@@H](O)C[C@@]21C [Cortivazol]
- Relative Potency of Glucocorticoid [1]: 50

Reference: patent US10195212B2, “Glucocorticoid-loaded nanoparticles for prevention of corneal allograft rejection and neovascularization” (The Johns Hopkins University, priority 2014, dated 2019)
